Patent publication US6225478A, “Iridoid derivatives and neovascularization inhibitors containing the same as active ingredient” (Tsumura & Co., priority 1999, dated 2001)

Key:
[1] = tested on: HUFEC; assay: Cell Migration Assay (CMA) Test, inhibitory rate with control (-) correction; format: cell-based, human; settings: Homo sapiens, 24 h, 125 μl of 0.32 mM sample solution in 4.0 ml medium, 80% or more = remarkable
Outline: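 Confluent HUFEC monolayers were scratch-wounded, then cultured 24 h at 37 °C, 5% CO2 in M199 (2+) medium with compound added as 125 μl of a 0.32 mM solution (3.2% DMSO) per 4 ml. Giemsa-stained cells migrating into 1 mm×1 mm blocks counted; inhibition % calculated relative to control (+) and control (−) wells.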

[2] = tested on: human umbilical-vein endothelial cells (HUVEC); assay: Tube Formation Assay (TFA) Test, HUVEC in collagen gel; format: cell-based; settings: Homo sapiens, HUVEC, Tables 75-83; 0.32 mM sample solution; method as for Compounds 1 through 60; read-out: TFA Inhibition rate (%)
Outline: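 HUVEC (7th subculture, 1×10^5 cells/ml) attached to collagen gel for 2 h at 37 °C, given sample and overlaid with collagen, then cultured 20 h at 37 °C, 5% CO2 in M-199 with 20% FCS, 30 ng/ml b-FGF and 0.1 μM PMA. Tube length measured by image analysis; % inhibition relative to positive and negative controls.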

Structure (SMILES) | inhibition at 320 µM (stock) [1] | inhibition at 320 µM (stock) [2]
COC(=O)C1=CO[C@@H](OC(=O)Nc2c(F)cccc2F)[C@H]2[C@@H]1CC[C@@H]2C [I-276] | 5.7% | 8.2%
COC(=O)C1=CO[C@@H](OC(=O)Nc2cccc(C(F)(F)F)c2)[C@H]2[C@@H]1CC[C@@H]2C [I-277] | 12.7% | 84.4%
CNC(=O)O[C@@H]1OC=C(C)[C@H]2CC[C@H](C)[C@@H]12 [I-278] | 125% | 20.2%
CCOC(=O)C1=COC(OC(=O)NC)C2C1CC1OC12CO (stereo not shown) [I-279] | 45.1% | 13.2%
CNC(=O)O[C@@H]1OC=C(C(=O)OC)[C@H]2CC[C@@H](C)[C@@H]12 [I-280] | 72.4% | 14.9%
CNC(=O)O[C@@H]1OC=C(C(=O)O)[C@H]2CC[C@@H](C)[C@@H]12 [I-281] | 27.9% | 31.1%
CNC(=O)O[C@@H]1OC=C(C(=O)N2CCN(CCO)CC2)[C@H]2CC[C@@H](C)[C@@H]12 [I-282] | 5.8% | 6%
CNC(=O)O[C@@H]1OC=C(C)[C@H]2CC[C@@H](C)[C@@H]12 [I-283] | 9.1% | 11%
COC(=O)C1=CO[C@@H](OC(=S)N(C)C)[C@H]2[C@@H]1C[C@@H]1O[C@]21C [I-284] | 32.5% | 23.1%
COC(=O)C1=CO[C@H](OC(=S)N(C)C)[C@H]2[C@@H]1C[C@@H]1O[C@]21C [I-285] | 6.5% | 7.7%
CNC(=O)OCC1=CC[C@@H]2C(C(=O)OC)=CO[C@@H](OC(=O)NC)[C@H]12 [I-287] | 35.2% | 30.1%
COC(=O)C1=CO[C@@H](OC(=O)NCCCl)[C@@H]2C(COC(=O)NCCCl)=CC[C@H]12 [I-288] | 15.9% | 2.4%
COC(=O)C1=COC[C@H]2[C@@H]1C[C@@H]1O[C@@]12CO [I-289] | 9.4% | 17.1%
CNC(=O)OC[C@]12O[C@H]1C[C@@H]1C(C(=O)OC)=COC[C@@H]12 [I-290] | 51.5% | 13.5%
COC(=O)C1=COC[C@H]2[C@@H]1C[C@@H]1O[C@@]12COC(=O)NCCCl [I-291] | 7% | 44.5%
COC(=O)C1=COC[C@@H]2C(CSc3nc4ccccc4s3)=CC[C@H]12 [I-292] | 57.9% | 23.5%
COC(=O)C1=COC[C@@H]2C(C(=O)N3CCN(CCO)CC3)=CC[C@H]12 [I-293] | 69.3% | 11.2%
CCCCCCC1CC[C@@H]2C(C(=O)OC)=COC[C@H]12 (stereo partly shown) [I-294] | 4.5% | 7.8%
CNC(=O)OCC1=CC[C@@H]2C(C(=O)OC)=COC[C@H]12 [I-295] | 5.6% | 7.9%
COC(=O)C1=COC[C@@H]2C(COC(=O)NCCCl)=CC[C@H]12 [I-296] | 19.9% | 21.3%
COC(=O)C1=COC[C@@H]2C(COC(=O)NCCCl)CC[C@H]12 (stereo partly shown) [I-297] | 15.2% | 11.2%
CCCCCC[C@]12O[C@H]1C[C@@H]1C(C(=O)OC)=COC[C@@H]12 [I-298] | 7.8% | 9.5%
CCCCCCC1=CC[C@@H]2C(C(=O)OC)=CO[C@@H](OC(=O)NC)[C@H]12 [I-299] | 5.9% | 8.8%
CCCCCCC1CC[C@@H]2C(C(=O)OC)=CO[C@@H](OC(=O)NC)[C@H]12 (stereo partly shown) [I-300] | 8% | 14.6%
O=C(C1=COC[C@@H]2C(CO)=CC[C@H]12)N1CCN(CCO)CC1 [I-301] | 56% | 15.9%
COC(=O)C1=COC[C@@H]2C(C)=CC[C@H]12 [I-302] | 26.6% | 12.5%
